Results from patent publication US11780845B2 (Relay Therapeutics, Inc., priority 2019, dated 2023).
pIC50: −log10 of the molar value.

Experiments:
[1] = target: FGFR2 (Homo sapiens (Human), UniProt P21802); assay: FGFR2 Biochemical Caliper Assay
Experimental: Compounds of the present invention were also tested in a FGFR2 Biochemical Caliper Assay. Compounds were prepared in 10 mM DMSO solution and serially diluted into 11 concentrations by 3-fold dilution. […] 5 uL of ATP solution (100 uM) was added to start the reaction and the plate was incubated for 90 minutes, then 70 uL of stopping buffer (0.5M EDTA) was added to terminate the reaction. Each well was analyzed using EZ reader.

[2] = tested on: SNU16 cells; assay: SNU16 Cancer Cell Line Proliferation Assay; type: cell-based; conditions: Homo sapiens; SNU-16 cells
Experimental: Compounds of the present invention were also tested in a SNU16 Cancer Cell Line Proliferation Assay, Test compounds were prepared in a 10 mM DMSO stock solution. 45 uL of stock solution was transferred to a 384 well plate, and a 3-fold 11-point dolution was performed. SNU16 cells in a 384 well cell culture plate were seeded and incubated at 37 degrees for 24 hours. 40 nL of each concentration of compound was transferred from the compound plate to a corresponding well in the cell culture plate by Echo550 liquid handler. The plates were incubated for 96 hours, then equilibrated to room temperature for 15 minutes. 20 uL of CellTiter Glo reagent is added into each well, then the plate was shaken gently for 30 minutes at room temperature. Chemiluminescence was then read on an EnVision reader.

Chain of FGFR2 (P21802 22-821): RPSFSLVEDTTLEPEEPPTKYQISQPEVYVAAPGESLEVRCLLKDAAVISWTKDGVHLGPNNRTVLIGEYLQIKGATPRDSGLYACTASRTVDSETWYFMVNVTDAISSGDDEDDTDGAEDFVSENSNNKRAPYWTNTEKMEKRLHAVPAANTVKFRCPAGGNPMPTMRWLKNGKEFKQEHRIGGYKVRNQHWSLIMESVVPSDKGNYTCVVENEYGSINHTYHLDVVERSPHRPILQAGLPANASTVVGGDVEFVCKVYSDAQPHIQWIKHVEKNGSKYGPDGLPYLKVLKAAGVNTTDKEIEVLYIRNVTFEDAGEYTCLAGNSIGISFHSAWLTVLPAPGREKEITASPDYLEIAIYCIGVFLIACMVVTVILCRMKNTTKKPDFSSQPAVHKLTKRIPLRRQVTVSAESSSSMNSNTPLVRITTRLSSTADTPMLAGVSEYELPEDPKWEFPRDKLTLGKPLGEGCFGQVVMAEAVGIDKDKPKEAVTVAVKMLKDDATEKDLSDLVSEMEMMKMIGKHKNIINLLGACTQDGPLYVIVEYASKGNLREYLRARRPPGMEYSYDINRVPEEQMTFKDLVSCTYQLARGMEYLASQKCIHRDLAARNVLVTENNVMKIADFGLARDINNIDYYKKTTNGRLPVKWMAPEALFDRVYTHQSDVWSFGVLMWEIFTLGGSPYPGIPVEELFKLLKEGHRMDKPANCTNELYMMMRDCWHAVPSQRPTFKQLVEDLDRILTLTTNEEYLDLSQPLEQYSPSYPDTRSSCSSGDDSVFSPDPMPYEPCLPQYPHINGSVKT

Structure (SMILES)	pIC50 [1]	pIC50 [2]
C=C(C)C(=O)Nc1ccc(-c2c(-c3ccc(Oc4cccc(C)n4)c(OC)c3)c3c(N)ncnc3n2C)cc1 [Example 4]	> 7.00	≥ 7.00
C=CC(=O)Nc1ccc(-c2c(-c3ccc(Oc4ccccn4)c(OC)c3)c3c(N)ncnc3n2C)cc1 [Example 5]	> 7.00	≥ 7.00
C=CC(=O)Nc1ccc(-c2c(-c3ccc(Oc4cccc(C)n4)cc3)c3c(N)ncnc3n2C)cc1F [Example 11]	> 7.00	≥ 7.00
C=CC(=O)Nc1ccc(-c2c(-c3ccc(Oc4cccc(C)n4)cc3)c3c(N)ncnc3n2C)cc1OC [Example 14]	> 7.00	≥ 7.00
C=CC(=O)Nc1ccc(-c2c(-c3ccc(Oc4ncccn4)c(OC)c3)c3c(N)ncnc3n2C)cc1 [Example 15]	> 7.00	≥ 7.00
C/C=C/C(=O)Nc1ccc(-c2c(-c3ccc(Oc4cccc(C)n4)c(OC)c3)c3c(N)ncnc3n2C)cc1 [Example 31]	> 7.00	≥ 7.00
C=CC(=O)Nc1ccc(-c2c(-c3ccc(Oc4ncc(C)cn4)c(OC)c3)c3c(N)ncnc3n2C)cc1 [Example 32]	> 7.00	≥ 7.00
C=CC(=O)Nc1ccc(-c2c(-c3ccc(Oc4cccc(Cl)n4)c(OC)c3)c3c(N)ncnc3n2C)cc1 [Example 35]	> 7.00	≥ 7.00
C=C(C)C(=O)Nc1ccc(-c2c(-c3ccc(Oc4ncccn4)c(OC)c3)c3c(N)ncnc3n2C)cc1 [Example 36]	6.00 to 6.60	6.60 to 7.00
C=CC(=O)Nc1ccc(-c2c(-c3ccc(Oc4nccc(C)n4)c(OC)c3)c3c(N)ncnc3n2C)cc1 [Example 38]	> 7.00	≥ 7.00
C=CC(=O)Nc1ccc(-c2c(-c3ccc(Oc4ccc(C)c(C)n4)c(OC)c3)c3c(N)ncnc3n2C)cc1 [Example 45]	> 7.00	≥ 7.00
C=CC(=O)Nc1ccc(-c2c(-c3ccc(Oc4ncccn4)c(C(F)(F)F)c3)c3c(N)ncnc3n2C)cc1 [Example 47]	> 7.00	≥ 7.00
C=CC(=O)Nc1ccc(-c2c(-c3ccc(Oc4ncccn4)c(CC)c3)c3c(N)ncnc3n2C)cc1 [Example 48]	> 7.00	≥ 7.00
C=CC(=O)Nc1ccc(-c2c(-c3ccc(Oc4ncccn4)c(N(C)C)c3)c3c(N)ncnc3n2C)cc1 [Example 49]	> 7.00	≥ 7.00
C=CC(=O)Nc1ccc(-c2c(-c3ccc(Oc4cccc(CC)n4)c(OC)c3)c3c(N)ncnc3n2C)cc1 [Example 50]	> 7.00	≥ 7.00
C=CC(=O)Nc1ccc(-c2c(-c3ccc(Oc4ncccn4)c(OCC)c3)c3c(N)ncnc3n2C)cc1 [Example 51]	> 7.00	≥ 7.00
C=CC(=O)Nc1ccc(-c2c(-c3ccc(Oc4ncccn4)c(OC(F)(F)F)c3)c3c(N)ncnc3n2C)cc1 [Example 53]	> 7.00	≥ 7.00
C=CC(=O)Nc1ccc(-c2c(-c3ccc(Oc4ncccn4)cc3)c3c(N)ncnc3n2C)cc1 [Example 54]	> 7.00	≥ 7.00
C=CC(=O)Nc1ccc(-c2c(-c3ccc(Oc4ncc(CO)cn4)c(OC)c3)c3c(N)ncnc3n2C)cc1 [Example 60]	> 7.00	6.00 to 6.60
C=C(C)C(=O)Nc1ccc(-c2c(-c3ccc(Sc4ncccn4)cc3)c3c(N)ncnc3n2C)cc1 [Example 69]	6.00 to 6.60	6.00 to 6.60
Cc1cccc(Oc2ccc(-c3c(-c4ccc(NC(=O)C(C)C)cc4)n(C)c4ncnc(N)c34)cc2)n1 [Example 70]	6.00 to 6.60	6.00 to 6.60
C=CC(=O)Nc1ccc(-c2c(-c3ccc(Oc4ncc(Cl)cn4)c(OC)c3)c3c(N)ncnc3n2C)cc1 [Example 78]	> 7.00	≥ 7.00
C=C(C)C(=O)Nc1ccc(-c2c(-c3ccc(Oc4cccc(C)n4)cc3)c3c(N)ncnc3n2CC)cc1 [Example 83]	> 7.00	≥ 7.00
C=C(C)C(=O)Nc1ccc(-c2c(-c3ccc(NC(C)=O)c(OC)c3)c3c(N)ncnc3n2C)cc1 [Example 86]	4.00 to 6.00	6.00 to 6.60
C=C(C)C(=O)Nc1ccc(-c2c(-c3ccc(Oc4cccc(C)n4)cc3)c3c(N)ncnc3n2C2CC(O)C2)cc1 (stereo not drawn) [Example 90]	> 7.00	≥ 7.00
C=C(C)C(=O)Nc1ccc(-c2c(-c3ccc(Oc4cccc(C)n4)cc3)c3c(N)ncnc3n2CCO)cc1 [Example 91]	> 7.00	≥ 7.00
C=C(C)C(=O)Nc1ccc(-c2c(-c3cc(F)c(Oc4ncccn4)c(Cl)c3)c3c(N)ncnc3n2C)cc1 [Example 94]	> 7.00	≥ 7.00
